{"source": "patent US20170190726A9", "about": "“PRODRUG FOR RELEASE OF CISPLATIN AND CYCLOOXYGENASE INHIBITOR” (priority 2013, published 2017)", "key": {"RAW 264.7 macrophages": {"test_system": "RAW 264.7 macrophages", "assay": "MTT cell viability of LPS activated RAW 264.7 macrophages", "assay_type": "cell-based, mouse", "conditions": "10 μM, 24 h", "method": "FIG. 16: Cytotoxicity of Platin-A (10 μM), cisplatin (10 μM), aspirin (10 μM), and cisplatin (10 μM)+aspirin (10 μM) on LPS activated RAW 264.7 macrophages with incubation time of 24 h.\nThe cytotoxic behaviors of cisplatin, aspirin, cisplatin+aspirin, and Platin-A were evaluated using the MTT assay against PC3, DU145, LNCaP, and RAW 264.7 cells. Cells (2000 cells/well for PC3, and DU145 cells; 10000 cells/well for LNCaP and RAW 264.7) were seeded on a 96-well plate in 100 μL of desired medium and incubated for 24 h. The cells were treated with different constructs at varying concentrations and incubated for 72 h at 37° C. except for RAW 264.7 macrophages. An incubation time period of 24 h was used for macrophages. The cells were then treated with 20 μL of MTT (5 mg/mL in PBS) for 5 h. The medium was removed, the cells were lysed with 100 μL of DMSO, and the absorbance of the purple formazan was recorded at 550 nm using a Bio-Tek Synergy HT microplate reader. Each well was performed in triplicate. […] The IC50 values were reported at +95% confidence intervals."}, "IL-10": {"test_system": "IL-10", "assay": "ELISA of IL-10 in LPS-stimulated RAW 264.7 macrophages", "assay_type": "cell-based, mouse", "conditions": "preventive: pretreatment 10 μM 6 h, then LPS 12 h", "description": "Chronic inflammation can be important for progression of human cancers, including PCa. Pro-inflammatory cytokines, TNF-α and interleukin (IL)-6, can be important for proliferation, survival, metastasis, and escape from immune surveillance of cancers. Chronic inflammation by activation of toll like receptors (TLRs) on cancer cells creates a tumor micro-environment which impairs the anti-tumor function of the immune system to allow to develop and survive. The cytokines TNF-α and IL-6 are potent activators of NF-κB, a key modulator of inflammation-induced carcinogenesis. Enhanced TNF-α secretion mediates cisplatin nephrotoxicity. The anti-inflammatory cytokine, IL-10 inhibits inflammatory and cytotoxic pathways in cisplatin-induced acute renal injury. […] First, we evaluated the effects of Platin-A, cisplatin, a combination of cisplatin and aspirin, and aspirin on pro-inflammatory cytokines IL-6, TNF-α, and anti-inflammatory IL-10 production in LPS-stimulated RAW 264.7 macrophages. […] To exclude the possibility that the decrease in the cytokines levels was simply due to the cytotoxicity of Platin-A, cell viability was evaluated. […]\nRAW 264.7 cells were plated at a concentration of 10,000 cells/mL in 96 plates and allowed to grow overnight. […] The absorbance was recorded at 450 nm using a BioTek Synergy HT well plate reader."}, "[1]": {"assay": "Aspirin release from Platin-A by RP-HPLC after sodium ascorbate reduction", "assay_type": "physicochemical", "conditions": "acetonitrile-water, HPLC 280 nm", "method": "The remarkable anticancer activity of cisplatin is due to its inherent proficiency to bind with the N7 position of guanine bases leading to DNA damage. To mimic the intracellular reduction of Platin-A to cisplatin and activity of generated cisplatin with DNA, Platin-A was reduced with sodium ascorbate in the presence of 2′-deoxyguanosine 5′-monophosphate sodium salt hydrate (5′-GMP) as a truncated version of DNA, and the products were analyzed by matrix-assisted laser desorption/ionization (MALDI)-time of flight (TOF)-mass spectrometry (MS). […] Binding studies with 5′-GMP provided strong evidence that cisplatin released upon reduction of Platin-A will interact with nuclear DNA efficiently. The release of the other drug, aspirin from Platin-A was analyzed by HPLC (FIG. 8). […] As time progress, formation of increasing amounts of salicylic acid, the main metabolite of aspirin was detected (FIG. 8). This observation supported the release of aspirin moiety from Platin-A in its pristine form or its final metabolite form for COX inhibitory and anti-inflammatory activities, respectively.\nThe ability of Platin-A to release aspirin under reducing atmosphere was studied RP-HPLC. Reduction of Platin-A (2.97 mg, 2 mM) was carried out using sodium ascorbate (5.28 mg, 10 mM) in acetonitrile-water (1:2, 3 mL) and reduction product was examined by HPLC. […]"}}}
{"smiles": "CC(=O)Oc1ccccc1C(=O)[O][Pt]([NH2])([NH2])([OH])([Cl])[Cl]", "note": "[Platin-A]", "values": [{"measurement": "cell viability", "setting": "RAW 264.7 macrophages", "result": "did not affect cell viability"}, {"measurement": "level of IL-10", "setting": "IL-10", "result": "enhanced level of IL-10"}, {"measurement": "release of aspirin upon reduction", "setting": "[1]", "result": "initially produces aspirin upon reduction"}]}
